From patent US8389011B2, “Pharmaceutical compositions of cholesteryl ester transfer protein inhibitors” (Bend Research, Inc., priority 2000, dated 2013)

Test: Solubility in water
Assay type: physicochemical
Settings: aqueous solubility determined at about 22° C. unless otherwise specified, read-out: solubility in water
From the text: The invention is useful for CETP inhibitors which have sufficiently low aqueous solubility, low bioavailability or slow rate of absorption such that it is desirable to increase their concentration in an aqueous environment of use. Therefore, anytime one finds it desirable to raise the aqueous concentration of the CETP inhibitor in a use environment, the invention will find utility.

solubility	Compound
< 1 µg/mL	CCc1cc(Oc2cccc(N(Cc3cccc(OC(F)(F)C(F)F)c3)C[C@@H](O)C(F)(F)F)c2)ccc1Cl [Drug 11, (2R)-3-[[3-(4-chloro-3-ethylphenoxy)phenyl][[3-(1,1,2,2-tetrafluoroethoxy)phenyl]methyl]amino]-1,1,1-trifluoro-2-propanol]
< 1 µg/mL	CC[C@@H]1C[C@H](N(Cc2cc(C(F)(F)F)cc(C(F)(F)F)c2)C(=O)OC)c2cc(C(F)(F)F)ccc2N1C(=O)OC(C)C [Drug 12, [2R,4S]4-[(3,5-bis-trifluoromethyl-benzyl)-methoxycarbonyl-amino]-2-ethyl-6-trifluoromethyl-3,4-dihydro-2H-quinoline-1-carboxylic acid isopropyl ester]
